According to US20250171417A1, “HETEROCYCLIC DERIVATIVE, AND COMPOSITION AND PHARMACEUTICAL USE THEREOF” (Xizang Haisco Pharmaceutical Co., Ltd., priority 2021, published 2025):
Where two headings read alike, the source gives them in different places.

Columns and labels:
[1] = tested on: Prostate cancer cells 22RV1; test: Experiment on inhibiting 22RV1 cell proliferation (CellTiter-Glo, 7 days); type: cell-based; details: Homo sapiens, 168 h, 22RV1 cells, 7 days incubation, read-out: IC50 values for inhibition of 22RVI cells
In short: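 22RV1 cells at 2000/well in 1% charcoal-stripped-FBS phenol red-free medium, treated next day with compound for 7 days at 37 °C, 5% CO2. Viability by CellTiter-Glo luminescence; inhibition relative to DMSO vehicle, IC50 from dose-response fit.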

[2] = Pharmacokinetic test in rats; type: in vivo; details: rat, plasma, po, male SD rats; for bioavailability: i.g. 5 mg/kg vs intravenous 2 mg/kg; for AUC(0-t): i.g. 5 mg/kg
Experimental: Test objective: In this experiment, a single dose of each test compound was administered to SD rats intravenously and intragastrically, and the concentrations of the test compounds in plasma of rats were measured to evaluate the pharmacokinetic characteristics of the test compounds in rats.
Experimental animals: male SD rats, 200-250 g, 6-8 weeks old, 6 rats/compound, purchased from Chengdu Ddossy Experimental Animals Co., Ltd.
Experimental method: on the day of the test, 6 SD rats were randomly grouped according to their body weight; the animals were fasted with water available for 12 to 14 hours one day before the administration of a test compound, and were fed 4 hours after the administration.
Sampling: Before and after the administration, 0.1 mL of blood samples were drawn from the orbits of the animals under isoflurane anesthesia, and placed in an EDTAK2 centrifuge tube. Centrifugation was carried out at 5000 rpm at 4° C. for 10 min, and the plasma was collected.
Time points for plasma collection in IV&PO group: 0, 5 min, 15 min, 30 min, 1 h, 2 h, 4 h, 6 h, 8 h, and 24 h.
Before analysis and detection, all samples were stored at −60° C. The samples were analyzed quantitatively by LC-MS/MS.

[3] = cells without a unit of their own (μM)
[4] = cells with nM printed beside the value

Row | IC50 [1, 3] [µM] | bioavailability [2] [%] | AUC(0-t) [2] [ng·h/mL] | IC50 [1, 4] [µM] | SMILES
1 | < 1 | 55.3 ± 5.4 | 9390 ± 916 | – | O=C1CCC(N2C(=O)c3cc(F)c(N4CC(C#Cc5cnn(C6(C(=O)Nc7ccc(C(F)(F)F)cc7Cl)CCC6)c5)C4)cc3C2=O)C(=O)N1 (centres unmarked) [Compound 33]
2 | – | – | – | < 0.05 | CN(C)c1ccc(NC(=O)C2(n3cc(C#CC4CN(c5ccc6c(c5)C(=O)N(C5CCC(=O)NC5=O)C6=O)C4)cn3)CCC2)c(Cl)c1 (centres unmarked) [Compound 181, N-(2-chloro-4-(dimethylamino)phenyl)-1-(4-(2-(1-(2-(2,6-dioxopiperidin-3-yl)-1,3-dioxo-2,3-dihydro-1H-isoindol-5-yl)azetidin-3-yl)ethynyl)-1H-pyrazol-1-yl)cyclobutane-1-carboxamide]
3 | – | – | – | < 0.05 | O=C1CCC(N2C(=O)c3ccc(N4CC(C#Cc5cnn(C6(C(=O)Nc7ccc(C(F)(F)F)cc7Cl)CCCC6)c5)C4)cc3C2=O)C(=O)N1 (centres unmarked) [Compound 69, N-(2-chloro-4-(trifluoromethyl)phenyl)-1-(4-((1-(2-(2,6-dioxopiperidin-3-yl)-1,3-dioxoisoindolin-S-yl)azetidin-3-yl)ethynyl)-1H-pyrazol-1-yl)cyclopentane-1-carboxamide]
4 | – | – | – | < 0.05 | O=C1CCC(N2C(=O)c3ccc(N4CC(C#Cc5cnn(C6(C(=O)Nc7ccc(C(F)(F)F)c(C8CC8)c7)CCC6)c5)C4)cc3C2=O)C(=O)N1 (centres unmarked) [Compound 75, N-(3-cyclopropyl-4-(trifluoromethyl)phenyl)-1-(4-((1-(2-(2,6-dioxopiperidin-3-yl)-1,3-dioxoisoindolin-5-yl)azetidin-3-yl)ethynyl)-1H-pyrazol-1-yl)cyclobutane-1-carboxamide]
5 | – | – | – | < 0.1 | N#Cc1ccc(NC(=O)C2(n3cc(C#CC4CN(c5ccc6c(c5)C(=O)N(C5CCC(=O)NC5=O)C6=O)C4)cn3)CCC2)c2ccccc12 (centres unmarked) [Compound 34, N-(4-cyanonaphthalen-1-yl)-1-(4-((1-(2-(2,6-dioxopiperidin-3-yl)-1,3-dioxoisoindolin-5-yl)azetidin-3-yl)ethynyl)-1H-pyrazol-1-yl)cyclobutane-1-carboxamide]
6 | – | – | – | < 0.1 | N#Cc1ccc(NC(=O)C2(n3cc(C#CC4CN(c5ccc6c(c5)C(=O)N(C5CCC(=O)NC5=O)C6=O)C4)cn3)CCC2)cc1N1CCCC1 (centres unmarked) [Compound 50, N-(4-cyano-3-(pyrrolidin-1-yl)phenyl)-1-(4-((1-(2-(2,6-dioxopiperidin-3-yl)-1,3-dioxoisoindolin-5-yl)azetidin-3-yl)ethynyl)-1H-pyrazol-1-yl)cyclobutane-1-carboxamide]

More lines, now with the values behind:

Row | SMILES | IC50 [1, 3] [µM] | bioavailability [2] [%] | AUC(0-t) [2] [ng·h/mL] | IC50 [1, 4] [µM]
7 | CC(C)(C(=O)Nc1ccc(C#N)c(Cl)c1)n1cc(C#CC2CN(c3ccc4c(c3)C(=O)N(C3CCC(=O)NC3=O)C4=O)C2)cn1 (centres unmarked) [Compound 12, N-(3-chloro-4-cyanophenyl)-2-(4-((1-(2-(2,6-dioxopiperidin-3-yl)-1,3-dioxoisoindolin-5-yl)azetidin-3-yl)ethynyl)-1H-pyrazol-1-yl)-2-methylpropanamide] | – | 73 ± 7.2 | 70500 ± 6980 | < 0.05
8 | CC(C)(C(=O)Nc1ccc(C#N)c2c1CCC2)n1cc(C#CC2CN(c3ccc4c(c3)C(=O)N(C3CCC(=O)NC3=O)C4=O)C2)cn1 (centres unmarked) [Compound 141, N-(7-cyano-2,3-dihydro-1H-inden-4-yl)-2-(4-((1-(2-(2,6-dioxopiperidin-3-yl)-1,3-dioxoisoindolin-5-yl)azetidin-3-yl)ethynyl)-1H-pyrazol-1-yl)-2-methylpropanamide] | – | 76.1 ± 716 | 15700 ± 3200 | < 0.05
9 | N#Cc1ccc(NC(=O)Cn2cc(C#CC3CN(c4ccc5c(c4)C(=O)N(C4CCC(=O)NC4=O)C5=O)C3)cn2)cc1C(F)(F)F (centres unmarked) [Compound 47, N-(4-cyano-3-(trifluoromethyl)phenyl)-2-(4-((1-(2-(2,6-dioxopiperidin-3-yl)-1,3-dioxoisoindolin-S-yl)azetidin-3-yl)ethynyl)-1H-pyrazol-1-yl) acetamide] | – | 37.7 ± 13 | 11300 ± 3880 | < 0.05
10 | CC(C)(C(=O)Nc1ccc(C#N)cc1Cl)n1cc(C#CC2CN(c3ccc4c(c3)C(=O)N(C3CCC(=O)NC3=O)C4=O)C2)cn1 (centres unmarked) [Compound 20, N-(2-chloro-4-cyanophenyl)-2-(4-((1-(2-(2,6-dioxopiperidin-3-yl)-1,3-dioxoisoindolin-5-yl)azetidin-3-yl)ethynyl)-1H-pyrazol-1-yl)-2-methylpropanamide] | – | 62 ± 23 | 16000 ± 5820 | < 0.05
11 | Cc1cc(NC(=O)C(C)(C)n2cc(C#CC3CN(c4ccc5c(c4)C(=O)N(C4CCC(=O)NC4=O)C5=O)C3)cn2)ccc1C#N (centres unmarked) [Compound 13, N-(4-cyano-3-methylphenyl)-2-(4-((1-(2-(2,6-dioxopiperidin-3-yl)-1,3-dioxoisoindolin-5-yl)azetidin-3-yl)ethynyl)-1H-pyrazol-1-yl)-2-methylpropanamide] | < 1 | 77.8 ± 8.5 | 57800 ± 6300 | –
12 | CN(C)c1cc(C(F)(F)F)ccc1NC(=O)C(C)(C)n1cc(C#CC2CN(c3ccc4c(c3)C(=O)N(C3CCC(=O)NC3=O)C4=O)C2)cn1 (centres unmarked) [Compound 182, N-(2-(dimethylamino)-4-(trifluoromethyl)phenyl)-2-(4-((1-(2-(2,6-dioxopiperidin-3-yl)-1,3-dioxoisoindolin-5-yl)azetidin-3-yl)ethynyl)-1H-pyrazol-1-yl)-2-methylpropanamide] | – | – | – | < 0.1
13 | Cc1nn(C(C)(C)C(=O)Nc2ccc(C#N)cc2C2CC2)cc1C#CC1CN(c2ccc3c(c2)C(=O)N(C2CCC(=O)NC2=O)C3=O)C1 (centres unmarked) [Compound 184, N-(4-cyano-2-cyclopropylphenyl)-2-(4-((1-(2-(2,6-dioxopiperidin-3-yl)-1,3-dioxoisoindolin-5-yl)azetidin-3-yl)ethynyl)-3-methyl-1H-pyrazol-1-yl)-2-methylpropanamide] | – | – | – | < 0.1
14 | CC(C)(C(=O)Nc1ccc(C(F)(F)F)cc1-n1cncn1)n1cc(C#CC2CN(c3ccc4c(c3)C(=O)N(C3CCC(=O)NC3=O)C4=O)C2)cn1 (centres unmarked) [Compound 117, N-(2-(1H-1,2,4-triazol-1-yl)-4-(trifluoromethyl)phenyl)-2-(4-((1-(2-(2,6-dioxopiperidin-3-yl)-1,3-dioxoisoindolin-5-yl)azetidin-3-yl)ethynyl)-1H-pyrazol-1-yl)-2-methylpropanamide] | < 1 | – | – | –
15 | CC(C)(C(=O)Nc1ccc(C#N)cc1Br)n1cc(C#CC2CN(c3ccc4c(c3)C(=O)N(C3CCC(=O)NC3=O)C4=O)C2)cn1 (centres unmarked) [Compound 82, N-(2-bromo-4-cyanophenyl)-2-(4-((1-(2-(2,6-dioxopiperidin-3-yl)-1,3-dioxoisoindolin-5-yl)azetidin-3-yl)ethynyl)-1H-pyrazol-1-yl)-2-methylpropanamide] | – | – | – | < 0.05
16 | CC#Cc1cc(C(F)(F)F)ccc1NC(=O)C(C)(C)n1ncc(C#CC2CN(c3ccc4c(c3)C(=O)N(C3CCC(=O)NC3=O)C4=O)C2)c1C (centres unmarked) [Compound 194, 2-(4-((1-(2-(2,6-dioxopiperidin-3-yl)-1,3-dioxoisoindolin-5-yl)azetidin-3-yl)ethynyl)-5-methyl-1H-pyrazol-1-yl)-2-methyl-N-(2-(prop-1-yn-1-yl)-4-(trifluoromethyl)phenyl) propanamide] | – | – | – | < 0.1
17 | CNC(=O)c1cc(C(F)(F)F)ccc1NC(=O)C(C)(C)n1cc(C#CC2CN(c3ccc4c(c3)C(=O)N(C3CCC(=O)NC3=O)C4=O)C2)cn1 (centres unmarked) [Compound 52, 2-(2-(4-((1-(2-(2,6-dioxopiperidin-3-yl)-1,3-dioxoisoindolin-5-yl)azetidin-3-yl)ethynyl)-1H-pyrazol-1-yl)-2-methylpropanamido)-N-methyl-5-(trifluoromethyl)benzamide] | < 1 | – | – | –
18 | CC(C)(C(=O)Nc1ccc(C#N)cc1C1CC1)n1cc(C#CC2CN(c3ccc4c(c3)C(=O)N(C3CCC(=O)NC3=O)C4=O)C2)c(C#N)n1 (centres unmarked) [Compound 201, N-(4-cyano-2-cyclopropylphenyl)-2-(3-cyano-4-((1-(2-(2,6-dioxopiperidin-3-yl)-1,3-dioxoisoindolin-5-yl)azetidin-3-yl)ethynyl)-1H-pyrazol-1-yl)-2-methylpropanamide] | – | – | – | < 0.1
19 | CC(C)(C(=O)Nc1ccc(C#N)cc1F)n1cc(C#CC2CN(c3ccc4c(c3)C(=O)N(C3CCC(=O)NC3=O)C4=O)C2)cn1 (centres unmarked) [Compound 27, N-(4-cyano-2-fluorophenyl)-2-(4-((1-(2-(2,6-dioxopiperidin-3-yl)-1,3-dioxoisoindolin-5-yl)azetidin-3-yl)ethynyl)-1H-pyrazol-1-yl)-2-methylpropanamide] | < 1 | – | – | –
20 | CC(C)(C(=O)Nc1ccc(C#N)c2c1C1CCC2C1)n1cc(C#CC2CN(c3ccc4c(c3)C(=O)N(C3CCC(=O)NC3=O)C4=O)C2)cn1 (centres unmarked) [Compound 165, N-(8-cyano-1,2,3,4-tetrahydro-1,4-methanonaphthalen-5-yl)-2-(4-((1-(2-(2,6-dioxopiperidin-3-yl)-1,3-dioxoisoindolin-5-yl)azetidin-3-yl)ethynyl)-1H-pyrazol-1-yl)-2-methylpropanamide] | – | – | – | < 0.1
